Target: TRPV1 (Mus musculus, UniProt Q704Y3)
Assay: whole-cell patch clamp, inhibition of capsaicin
Format: cell-based

Sequence of TRPV1 (Q704Y3 whole entry): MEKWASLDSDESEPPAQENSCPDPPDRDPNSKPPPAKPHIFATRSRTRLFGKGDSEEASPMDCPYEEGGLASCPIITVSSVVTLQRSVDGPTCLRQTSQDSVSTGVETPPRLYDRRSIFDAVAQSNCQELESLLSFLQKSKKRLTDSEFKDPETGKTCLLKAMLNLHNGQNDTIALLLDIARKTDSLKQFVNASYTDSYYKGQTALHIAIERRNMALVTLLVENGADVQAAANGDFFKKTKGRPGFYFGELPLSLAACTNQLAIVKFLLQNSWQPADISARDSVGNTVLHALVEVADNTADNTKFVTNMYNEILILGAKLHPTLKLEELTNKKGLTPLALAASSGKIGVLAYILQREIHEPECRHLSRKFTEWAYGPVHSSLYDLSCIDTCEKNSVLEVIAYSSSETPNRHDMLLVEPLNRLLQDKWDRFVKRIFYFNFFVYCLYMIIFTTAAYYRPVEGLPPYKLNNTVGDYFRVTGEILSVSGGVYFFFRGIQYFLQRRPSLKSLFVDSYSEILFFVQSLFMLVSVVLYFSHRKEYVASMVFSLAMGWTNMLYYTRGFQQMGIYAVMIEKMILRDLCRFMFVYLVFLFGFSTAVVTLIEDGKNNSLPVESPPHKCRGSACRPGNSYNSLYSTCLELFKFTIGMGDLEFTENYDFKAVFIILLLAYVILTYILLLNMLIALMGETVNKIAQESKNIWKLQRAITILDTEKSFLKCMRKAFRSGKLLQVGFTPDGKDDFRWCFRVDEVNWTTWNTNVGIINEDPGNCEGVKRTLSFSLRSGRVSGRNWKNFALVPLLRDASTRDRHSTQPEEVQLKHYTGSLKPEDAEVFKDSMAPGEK

IC50: 0.163 µM
Compound: CC(C)(C)c1ccc(/C=C/C(=O)Nc2ccc3c(c2)OCCO3)cc1 [AMG9810]

— article PMC3202339 (2011)
